These results are taken from US11737985B2 (priority 2013, dated 2023).

Like-named read-outs stand apart in the source and are kept apart here.

The target of data set [1] is T1, NKCC2 (Homo sapiens, UniProt Q13621).
T1 sequence (Q13621 1-1099): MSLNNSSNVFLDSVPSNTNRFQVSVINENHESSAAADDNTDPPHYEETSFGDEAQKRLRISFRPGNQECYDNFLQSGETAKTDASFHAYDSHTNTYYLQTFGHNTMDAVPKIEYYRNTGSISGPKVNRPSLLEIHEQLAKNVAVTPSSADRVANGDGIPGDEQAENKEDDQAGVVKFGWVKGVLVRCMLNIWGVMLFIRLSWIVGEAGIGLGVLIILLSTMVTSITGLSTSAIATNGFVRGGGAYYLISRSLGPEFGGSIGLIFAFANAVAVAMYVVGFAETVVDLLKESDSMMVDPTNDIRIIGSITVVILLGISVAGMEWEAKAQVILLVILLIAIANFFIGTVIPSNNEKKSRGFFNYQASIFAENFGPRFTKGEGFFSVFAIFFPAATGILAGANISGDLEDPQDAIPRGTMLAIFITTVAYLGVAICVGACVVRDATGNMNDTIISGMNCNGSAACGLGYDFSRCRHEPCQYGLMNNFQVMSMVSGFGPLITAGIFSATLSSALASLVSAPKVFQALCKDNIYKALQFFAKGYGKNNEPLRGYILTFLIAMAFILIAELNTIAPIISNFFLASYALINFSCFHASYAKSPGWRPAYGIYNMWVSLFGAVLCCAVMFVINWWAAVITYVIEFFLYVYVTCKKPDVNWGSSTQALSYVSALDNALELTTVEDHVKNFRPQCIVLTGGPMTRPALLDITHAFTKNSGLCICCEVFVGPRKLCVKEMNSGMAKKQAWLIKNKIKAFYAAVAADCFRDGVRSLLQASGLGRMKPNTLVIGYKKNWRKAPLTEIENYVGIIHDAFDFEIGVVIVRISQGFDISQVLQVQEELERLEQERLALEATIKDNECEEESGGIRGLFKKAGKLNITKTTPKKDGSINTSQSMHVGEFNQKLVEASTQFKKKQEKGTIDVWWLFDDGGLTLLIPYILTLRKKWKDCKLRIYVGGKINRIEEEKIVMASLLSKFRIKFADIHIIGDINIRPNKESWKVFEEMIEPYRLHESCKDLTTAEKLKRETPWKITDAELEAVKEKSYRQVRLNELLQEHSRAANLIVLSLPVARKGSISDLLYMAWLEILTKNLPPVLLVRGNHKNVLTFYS
Conditions: cited from earlier work.

Data set [2] deals with T2, hNKCC1a (Homo sapiens, UniProt P55011).
T2 sequence (P55011 1-1212): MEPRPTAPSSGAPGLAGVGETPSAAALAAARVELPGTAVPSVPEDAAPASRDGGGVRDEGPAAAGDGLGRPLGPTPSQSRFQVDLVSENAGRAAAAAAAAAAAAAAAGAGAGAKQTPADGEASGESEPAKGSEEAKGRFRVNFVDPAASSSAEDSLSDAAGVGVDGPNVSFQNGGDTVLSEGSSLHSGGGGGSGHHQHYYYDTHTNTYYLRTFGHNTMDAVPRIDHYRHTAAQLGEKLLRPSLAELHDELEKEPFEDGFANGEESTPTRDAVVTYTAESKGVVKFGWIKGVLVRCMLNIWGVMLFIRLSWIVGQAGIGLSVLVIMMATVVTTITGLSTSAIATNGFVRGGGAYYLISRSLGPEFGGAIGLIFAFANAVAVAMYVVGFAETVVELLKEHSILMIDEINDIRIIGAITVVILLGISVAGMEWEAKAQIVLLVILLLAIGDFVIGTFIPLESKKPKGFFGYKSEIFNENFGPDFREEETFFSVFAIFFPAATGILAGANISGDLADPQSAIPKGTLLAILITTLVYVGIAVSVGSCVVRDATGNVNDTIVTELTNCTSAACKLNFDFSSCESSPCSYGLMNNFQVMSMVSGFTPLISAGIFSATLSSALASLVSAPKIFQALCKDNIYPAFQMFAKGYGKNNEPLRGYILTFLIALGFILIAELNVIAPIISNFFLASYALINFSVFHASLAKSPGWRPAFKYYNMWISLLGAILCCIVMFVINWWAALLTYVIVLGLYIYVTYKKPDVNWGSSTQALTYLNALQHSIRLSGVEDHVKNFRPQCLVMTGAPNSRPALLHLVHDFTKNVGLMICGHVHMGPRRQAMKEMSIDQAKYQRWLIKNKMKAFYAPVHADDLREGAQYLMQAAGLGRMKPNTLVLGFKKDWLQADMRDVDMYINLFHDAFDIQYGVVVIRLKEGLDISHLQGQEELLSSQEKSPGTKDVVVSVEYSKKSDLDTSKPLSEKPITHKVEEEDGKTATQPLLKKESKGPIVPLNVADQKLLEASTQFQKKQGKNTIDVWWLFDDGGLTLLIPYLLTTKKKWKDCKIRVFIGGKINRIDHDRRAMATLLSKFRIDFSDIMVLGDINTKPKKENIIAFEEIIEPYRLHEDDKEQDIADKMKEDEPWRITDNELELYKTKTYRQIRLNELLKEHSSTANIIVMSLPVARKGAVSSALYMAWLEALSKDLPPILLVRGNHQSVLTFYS
Conditions: cited from earlier work.

The target in data set [3] is T3, hNKCC1b (Homo sapiens, UniProt P55011).
T3 sequence (P55011 1-1196 isoform P55011-3): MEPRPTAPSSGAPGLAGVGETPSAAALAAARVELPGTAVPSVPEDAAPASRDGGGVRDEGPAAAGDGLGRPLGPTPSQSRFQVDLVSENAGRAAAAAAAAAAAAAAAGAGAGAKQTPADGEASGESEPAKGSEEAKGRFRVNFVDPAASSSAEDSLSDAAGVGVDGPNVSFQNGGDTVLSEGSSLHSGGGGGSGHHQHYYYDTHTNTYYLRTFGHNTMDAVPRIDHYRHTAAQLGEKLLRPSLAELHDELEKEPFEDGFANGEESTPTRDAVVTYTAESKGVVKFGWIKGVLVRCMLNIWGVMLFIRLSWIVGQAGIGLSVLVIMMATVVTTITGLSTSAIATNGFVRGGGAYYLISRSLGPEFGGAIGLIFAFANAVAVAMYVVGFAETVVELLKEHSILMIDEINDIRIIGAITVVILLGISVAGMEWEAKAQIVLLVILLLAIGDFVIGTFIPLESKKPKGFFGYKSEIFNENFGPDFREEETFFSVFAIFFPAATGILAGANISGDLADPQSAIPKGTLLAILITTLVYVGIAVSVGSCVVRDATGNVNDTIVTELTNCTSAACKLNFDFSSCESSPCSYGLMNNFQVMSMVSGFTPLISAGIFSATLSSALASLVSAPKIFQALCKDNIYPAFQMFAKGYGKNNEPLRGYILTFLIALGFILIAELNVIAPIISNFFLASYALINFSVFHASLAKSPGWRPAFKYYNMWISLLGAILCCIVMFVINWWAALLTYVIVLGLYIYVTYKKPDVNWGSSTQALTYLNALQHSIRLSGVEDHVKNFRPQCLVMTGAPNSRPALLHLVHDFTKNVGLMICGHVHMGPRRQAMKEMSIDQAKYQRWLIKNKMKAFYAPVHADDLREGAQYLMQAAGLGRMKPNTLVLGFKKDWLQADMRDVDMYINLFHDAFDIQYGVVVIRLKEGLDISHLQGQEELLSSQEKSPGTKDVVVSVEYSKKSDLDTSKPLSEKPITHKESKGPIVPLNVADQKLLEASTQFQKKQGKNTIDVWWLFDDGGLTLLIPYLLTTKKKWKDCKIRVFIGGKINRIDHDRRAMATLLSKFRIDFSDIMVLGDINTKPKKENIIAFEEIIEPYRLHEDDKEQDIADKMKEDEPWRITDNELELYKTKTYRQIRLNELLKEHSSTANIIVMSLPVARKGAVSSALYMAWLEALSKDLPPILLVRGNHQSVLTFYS
Conditions: cited from earlier work.

Data set [4] can be described thus: Cross-over trial dapagliflozin / bumetanide: weekly urinary excretion (Table 9). It counts as in vivo, healthy volunteers. To be noted: for Ca^++ / Glucose / K^+ / Mg^++ / Na^+ / Urate: urine, Day 1-7.
The conditions of data set [5]: in vivo; cited from earlier work.
The conditions of data set [6]: in vivo; cited from earlier work. The source holds these as a separate data set.
For data set [7] the following is noted: during the remainder of the day after the dose, high salt intake; cited from earlier work.
For data set [8] the following is noted: in vivo; cited from earlier work. The source holds these as a separate data set.
The conditions of data set [9]: 1 mg; cited from earlier work.
For data set [10] the following is noted: cited from earlier work.

In general, IC50 refers to the concentration needed to halve the response being measured. For `NS(=O)(=O)c1cc(-c2nnn[nH]2)c(NCc2cccs2)cc1Cl` [Azosemide], the IC50 in data set [1] is 3100 nM; in data set [2] it was 250 nM; in data set [3], 210 nM.

On to `CCCCNc1cc(C(=O)O)cc(S(N)(=O)=O)c1Oc1ccccc1` [Bumetanide], for which the IC50 in data set [1] is 250 nM. Besides, the IC50 in [2] was 950 nM. Besides, the half-maximal inhibitory concentration (IC50) in data set [3] is 840 nM. Further, in [4] (given after one week of dapaglifozin therapy), the “greater natriuresis with bumetanide” value was 36%. Further, in [4], the “Ca^++” value stood at 667 ± 54 mg-wk^−1, the Glucose amounted to 0.3 ± 0.06 g-wk^−1, the “K^+” value was determined as 454 ± 32 mmol-wk^−1 and the “Mg^++” value is reported as 613 ± 48 mg-wk^−1. Besides, in [4], the “Na^+” value came out at 669 ± 46 mmol-wk^−1 and the Urate came to 2249 ± 160 mg-wk^−1.

Usually Tmax stands for the time from dosing to the highest level. Take `Cc1ccc([C@@H]2O[C@H](CO)[C@@H](O)[C@H](O)[C@H]2O)cc1Cc1ccc(-c2ccc(F)cc2)s1` [Canagliflozin]: in [5], the Bioavailability is 65%, the T1/2 was 10 h and the Tmax was 1 to 2 h.

Take `CCOc1ccc(Cc2cc([C@@H]3O[C@H](CO)[C@@H](O)[C@H](O)[C@H]3O)ccc2Cl)cc1` [Dapagliflozin]: in data set [5], the T1/2 is given as 13 h and the Tmax was 1 to 1.5 h. For the same compound, the “greater natriuresis with dapagliflozin” value in data set [4] (given after one week of bumetanide therapy) is on record as 190%. In [4], the “Ca^++” value was found to be 597 ± 76 mg-wk^−1, the Glucose is 239 ± 20 g-wk^−1, the “K^+” value is given as 415 ± 24 mmol-wk^−1 and the “Mg^++” value came to 548 ± 37 mg-wk^−1. For the same compound, in [4], the “Na^+” value is reported as 625 ± 15 mmol-wk^−1 and the Urate turned out to be 3382 ± 187 mg-wk^−1.

For `OC[C@H]1O[C@@H](c2ccc(Cl)c(Cc3ccc(O[C@H]4CCOC4)cc3)c2)[C@H](O)[C@@H](O)[C@@H]1O` [Empagliflozin], in [5], the Bioavailability was 95%, the T1/2 is on record as 13 h and the Tmax is reported as 1.5 h.

Broadly, the half-life is the time needed for the level to fall by half in the phase considered. Take `COC(=O)[C@@H]1CC2=CC(=O)CC[C@]2(C)[C@@]23O[C@@H]2C[C@@]2(C)[C@@H](CC[C@@]24CCC(=O)O4)[C@H]13` [Eplerenone]: the half-life in [6] is 4 to 6 h.

In the case of `CCOc1ccc(Cc2cc([C@]34OC[C@](CO)(O3)[C@@H](O)[C@H](O)[C@H]4O)ccc2Cl)cc1` [Ertugliflozin], in data set [5], the Bioavailability was 87%, the T1/2 is given as 12.5 h and the Tmax was 2 to 3 h.

Take `C=C(CC)C(=O)c1ccc(OCC(=O)O)c(Cl)c1Cl` [Ethacrynic acid]: the IC50 in data set [1] is 5100 nM.

Consider `NS(=O)(=O)c1cc(C(=O)O)c(NCc2ccco2)cc1Cl` [Furosemide], for which the IC50 in [1] is 5100 nM. In addition, the “reduction of GFR” value in data set [7] was “circa 23%”.

For the compound `OC[C@H]1O[C@@H](c2ccc(F)c(Cc3cc4ccccc4s3)c2)[C@H](O)[C@@H](O)[C@@H]1O` [Ipragliflozin], in [5], the Bioavailability was 92% and the T1/2 is listed as 15 h.

As to `O=C1CC[C@@]2(O)[C@H]3Cc4ccc(O)c5c4[C@@]2(CCN3CC2CC2)[C@H]1O5` [Naltrexone, 17-(cyclopropylmethyl)-4,5-epoxy-3,14-dihydroxymorphinan-6-one], in data set [8], the fraction metabolized is given as over 98%.

Turning to `COc1cc2nc(N3CCN(C(=O)c4ccco4)CC3)nc(N)c2cc1OC` [Prazosin], in [9], the Oral bioavailability is 56.9%.

`CCOc1ccc(Cc2cc([C@@H]3O[C@H](SC)[C@@H](O)[C@H](O)[C@H]3O)ccc2Cl)cc1` [Sotagliflozin]: in data set [5], the Bioavailability is listed as 70%, the T1/2 is reported as 2.5 h and the Tmax is on record as 1.9 h.

`CCc1ccc(Cc2ccc3c(c2)[C@]2(OC3)O[C@H](CO)[C@@H](O)[C@H](O)[C@H]2O)cc1` [Tofogliflozin]: in data set [5], the Bioavailability is listed as 98%, the T1/2 is reported as 5.5 h and the Tmax was 1.1 h.

With `Cc1cccc(Nc2ccncc2S(=O)(=O)NC(=O)NC(C)C)c1` [Torsemide], the IC50 in [1] is 300 nM; in data set [2], 6200 nM; in data set [3] it was 8200 nM. In data set [10] (in vivo), the Bioavailability is listed as 80-100%. For the same compound, the duration of action in [10] (in vivo) was 3 to 5 h. Also, the plasma half-life in data set [10] (unchanged in chronic renal failure) is 3 to 5 h.

As to `C[C@]12CCC(=O)C=C1C=C[C@@H]1[C@@H]2CC[C@@]2(C)[C@H]1CC[C@@]21CCC(=O)O1` [canrenone], the half-life entry in data set [6] is given as “more than 15 hours”.
